Test results taken from patent US20240285571A1, “METHODS OF TREATING BONE INFECTIONS” (MICROBION CORPORATION, priority 2020, published 2024).
Where two headings read alike, the source gives them in different places.

Assays:
K. pneumoniae = test: Broth microdilution MIC (Example 5); format: cell-based, Klebsiella pneumoniae
Description: (§1) Test and Comparator Agents: The test agents were stored at room temperature until assayed. […] The stock solutions were allowed to stand for at least 1 hr prior to use to auto-sterilize.
(§2) TestMedia: Test media were prepared and stored in accordance with guidelines from CLSI (4, 6, 7).
(§3) Broth Microdilution MC Testing (Aerobic Bacteria and Yeast): The broth microdilution assay method employed for the susceptibility testing of aerobic bacteria (excluding N. gonorrhoeae which was evaluated by agar dilution) and yeast essentially followed the procedures described by CLSI (3, 4, 7, 8) and employed automated liquid handlers to conduct serial dilutions and liquid transfers. […] These would become the ‘mother plates’ from which ‘daughter’ or test plates would be prepared. The drugs (300 μL at 40× the desired top concentration in the test plates) were dispensed into the appropriate well in Column 1 of the mother plates. The Biomek 2000 was used to make serial two-fold dilutions through Column 11 in the “mother plate”. The wells of Column 12 contained no drug and ultimately served as the organism growth control wells.
(§4) The daughter plates were prepared using the Biomek FX which transferred 5 μL of drug solution from each well of a mother plate to the corresponding well of the correct daughter plate in a single step.
(§5) A standardized inoculum of each organism was prepared per CLSI methods (3, 7). Isolated colonies of each test isolate were picked from the primary plate and a suspension was prepared to equal a 0.5 McFarland turbidity standard. Standardized suspensions were then diluted […] (1:100 for yeast, 1:20 for bacteria). After dilution, the inoculum suspensions were then transferred to compartments of sterile reservoirs divided by length (Beckman Coulter), and the Biomek 2000 was used to inoculate all plates. Daughter plates were placed on the Biomek 2000 in reverse orientation so that plates were inoculated from low to high drug concentration.
(§6) The Biomek 2000 delivered 10 μL of standardized inoculum into each well of the appropriate daughter plate for an additional 1:20 dilution.
(§7) Plates were stacked 4 high, covered with a lid on the top plate, placed into plastic bags, and incubated at 35° C. for approximately 24-48 hr for all yeast isolates and 16-24 hr for aerobic bacteria. Plates were viewed from the bottom using a plate viewer. […] MIC endpoints for the test agents and control compounds were read per CLSI criteria (3, 7).

P. aeruginosa [1] = settings: P. aeruginosa MMX 103 (ATCC 27853); cited from earlier work
A. baumannii = test: Broth microdilution MIC (Example 5); format: cell-based, Acinetobacter baumannii
Description: as §1, §2, §3, §4, §5, §6, §7

E. coli [2] = settings: E. coli MMX 102 (ATCC 25922); cited from earlier work
E. faecalis = test: Broth microdilution MIC (Example 5); format: cell-based, Enterococcus faecalis; settings: VRE
Description: as §1, §2, §3, §4, §5, §6, §7

P. aeruginosa [3] = test: Broth microdilution MIC (Example 5); format: cell-based, Pseudomonas aeruginosa
Description: as §1, §2, §3, §4, §5, §6, §7

E. coli [4] = test: Broth microdilution MIC (Example 5); format: cell-based, Escherichia coli
Description: as §1, §2, §3, §4, §5, §6, §7

S. aureus = test: Broth microdilution MIC (Example 5); format: cell-based, Staphylococcus aureus
Description: as §1, §2, §3, §4, §5, §6, §7

E. cloacae = test: Broth microdilution MIC (Example 5); format: cell-based, Enterobacter cloacae; settings: E. cloacae MMX 5981 (ATCC BAA-2468); NDM-1
Description: as §1, §2
Broth Microdilution MC Testing (Aerobic Bacteria and Yeast): The broth microdilution assay method employed for the susceptibility testing of aerobic bacteria (excluding N. gonorrhoeae which was evaluated by agar dilution) and yeast essentially followed the procedures described by CLSI (3, 4, 7, 8) and employed automated liquid handlers to conduct serial dilutions and liquid transfers. […] These would become the ‘mother plates’ from which ‘daughter’ or test plates would be prepared. The drugs (300 μL at 40× the desired top concentration in the test plates) were dispensed into the appropriate well in Column 1 of the mother plates. The Biomek 2000 was used to make serial two-fold dilutions through Column 11 in the “mother plate”. […]
Plates were stacked 4 high, covered with a lid on the top plate, placed into plastic bags, and incubated at 35° C. for approximately 24-48 hr for all yeast isolates and 16-24 hr for aerobic bacteria. […] MIC endpoints for the test agents and control compounds were read per CLSI criteria (3, 7).

E. faecium = test: Broth microdilution MIC (Example 5); format: cell-based; settings: VRE vanA
Description: as §1, §2, §3, §4, §5, §6, §7

C. tropicalis = test: Broth microdilution MIC, yeast (Example 5); format: cell-based; settings: FLUR
Description: (§8) Test and Comparator Agents: The test agents were stored at room temperature until assayed. All test agents were suspended and diluted in 100% dimethylsulfoxide (DMSO), and were ultimately tested at a final concentration of 0.06-64 μg/mL. The stock solutions were allowed to stand for at least 1 hr prior to use to auto-sterilize.
(§9) The susceptibility of yeast isolates was determined by broth microdilution in RPMI medium (HyClone Laboratories, Logan, UT; Lot No. AZC184041B) buffered with 0.165 M MOPS (Calbiochem, Billerica, MA; Lot No. 2694962). The pH of the medium was adjusted to 7.0 with 1 N NaOH, sterile filtered using a 0.2 μm PES filter, and stored at 4° C. until used.
(§10) Broth Microdilution MC Testing (Aerobic Bacteria and Yeast): The broth microdilution assay method employed for the susceptibility testing of aerobic bacteria (excluding N. gonorrhoeae which was evaluated by agar dilution) and yeast essentially followed the procedures described by CLSI (3, 4, 7, 8) and employed automated liquid handlers to conduct serial dilutions and liquid transfers. Automated liquid handlers included the Multidrop 384 (Labsystems, Helsinki, Finland) and Biomek 2000 (Beckman Coulter, Fullerton CA). The wells in columns 2-12 in standard 96-well microdilution plates (Costar 3795) were filled with 150 μl of the correct diluent. These would become the ‘mother plates’ from which ‘daughter’ or test plates would be prepared. The drugs (300 μL at 40× the desired top concentration in the test plates) were dispensed into the appropriate well in Column 1 of the mother plates. The Biomek 2000 was used to make serial two-fold dilutions through Column 11 in the “mother plate”. The wells of Column 12 contained no drug and ultimately served as the organism growth control wells.
(§11) The daughter plates were loaded with 185 μL per well of the appropriate test media using the Multidrop 384. The daughter plates were prepared using the Biomek FX which transferred 5 μL of drug solution from each well of a mother plate to the corresponding well of the correct daughter plate in a single step.
as §5
(§12) The Biomek 2000 delivered 10 μL of standardized inoculum into each well of the appropriate daughter plate for an additional 1:20 dilution. […] The final concentration of DMSO (if used as a solvent) in the test well was 2.5%.
as §7

C. glabrata = test: Broth microdilution MIC, yeast (Example 5); format: cell-based; settings: FLUR
Description: as §8, §9, §10, §11, §5, §12, §7

C. albicans = test: Broth microdilution MIC, yeast (Example 5); format: cell-based; settings: Sensitive
Description: as §8, §9, §10, §11, §5, §12, §7

C. parapsilosis [5] = test: Broth microdilution MIC, yeast (Example 5); format: cell-based
Description: as §8, §9, §10, §11, §5, §12, §7

C. parapsilosis [6] = settings: C. parapsilosis MMX 2323 (ATCC 22019), cited from earlier work

Gentamicin [reference compound]
>64 µg/mL: MIC (K. pneumoniae; K. pneumoniae MMX 5979, NDM-1) | MIC (A. baumannii; A. baumannii MMX 2592, MDR) | MIC (A. baumannii; A. baumannii MMX 2593, MDR) | MIC (E. faecalis; E. faecalis MMX 8960) | MIC (E. faecalis; E. faecalis MMX 8962) | MIC (P. aeruginosa [3]; P. aeruginosa MMX 4654, IMP-7) | MIC (E. coli [4]; E. coli MMX 5980 (ATCC BAA-2469), NDM-1) | MIC (E. coli [4]; E. coli MMX 8425, ESBL, LevR CAZR GmR) | MIC (E. cloacae) | MIC (E. faecium; E. faecium MMX 485) | MIC (E. faecium; E. faecium MMX 752)
(0.5-2) μg/mL: CLSI QC range of MIC (P. aeruginosa [1])
64 µg/mL: MIC (K. pneumoniae; K. pneumoniae MMX 4623, KPC-2) | MIC (E. coli [4]; E. coli MMX 8423, ESBL, LevR CAZR GmR)
1 µg/mL: MIC (K. pneumoniae; K. pneumoniae MMX 4653, KPC-3) | MIC (K. pneumoniae; K. pneumoniae MMX 4683, KPC-2) | MIC (K. pneumoniae; K. pneumoniae MMX 4685, ESBL) | MIC (P. aeruginosa [3]; P. aeruginosa MMX 103 (ATCC 27853), QC) | MIC (E. coli [4]; E. coli MMX 102 (ATCC 25922), QC)
0.5 µg/mL: MIC (A. baumannii; A. baumannii MMX 3372, MDR)
0.25 µg/mL: MIC (K. pneumoniae; K. pneumoniae MMX 4622, KPC-2) | MIC (K. pneumoniae; K. pneumoniae MMX 4684, ESBL) | MIC (E. coli [4]; E. coli MMX 8424, ESBL, CAZR) | MIC (S. aureus; S. aureus MMX 5373, MRSA) | MIC (S. aureus; S. aureus MMX 6311, MRSA) | MIC (S. aureus; S. aureus MMX 9204, MRSA) | MIC (S. aureus; S. aureus MMX 9205, MRSA)
0.12 µg/mL: MIC (A. baumannii; A. baumannii MMX 3373, Sensitive) | MIC (S. aureus; S. aureus MMX 101 (ATCC 29213), QC, MSSA) | MIC (S. aureus; S. aureus MMX 9203, MRSA)
8 µg/mL: MIC (K. pneumoniae; K. pneumoniae MMX 4694, KPC-3) | MIC (A. baumannii; A. baumannii MMX 4651 (NCTC 13304), MDR, OXA-27) | MIC (E. faecalis; E. faecalis MMX 8961) | MIC (P. aeruginosa [3]; P. aeruginosa MMX 1381, MDR) | MIC (P. aeruginosa [3]; P. aeruginosa MMX 2562, MDR)
4 µg/mL: MIC (P. aeruginosa [3]; P. aeruginosa MMX 3991, MDR) | MIC (P. aeruginosa [3]; P. aeruginosa MMX 4697, VIM-2)
(0.25-1) μg/mL: CLSI QC range of MIC (E. coli [2])

C[C@@H]1[C@H](O)[C@@H](C)/C=C/C=C/C=C/C=C/C=C/C=C/C=C/[C@H](O[C@@H]2O[C@H](C)[C@@H](O)[C@H](N)[C@@H]2O)C[C@@H]2O[C@](O)(C[C@@H](O)C[C@@H](O)[C@H](O)CC[C@@H](O)C[C@@H](O)CC(=O)O[C@H]1C)C[C@H](O)[C@H]2C(=O)O [Amphotericin B, reference compound]
0.5 µg/mL: MIC (C. tropicalis; C. tropicalis MMX 7247, 24 hr) | MIC (C. tropicalis; C. tropicalis MMX 7248, 24 hr) | MIC (C. glabrata; C. glabrata MMX 7086, 24 hr) | MIC (C. glabrata; C. glabrata MMX 7318, 24 hr) | MIC (C. albicans; C. albicans MMX 7055, 48 hr) | MIC (C. parapsilosis [5]; C. parapsilosis MMX 2323 (ATCC 22019), QC, 24 hr) | MIC (C. parapsilosis [5]; C. parapsilosis MMX 7370, FLUR, 24 hr)
0.5 to 4 µg/mL: CLSI QC range of MIC (C. parapsilosis [6]; 48 hr)
0.5, 0.5 μg/mL: MIC (C. tropicalis; C. tropicalis MMX 7360, 24 hr) | MIC (C. tropicalis; C. tropicalis MMX 7360, 48 hr) | MIC (C. albicans; C. albicans MMX 7039, 24 hr) | MIC (C. albicans; C. albicans MMX 7039, 48 hr) | MIC (C. parapsilosis [5]; C. parapsilosis MMX 7555, FLUR, 24 hr) | MIC (C. parapsilosis [5]; C. parapsilosis MMX 7555, FLUR, 48 hr)
0.25 µg/mL: MIC (C. albicans; C. albicans MMX 7055, 24 hr)
0.25 to 2 µg/mL: CLSI QC range of MIC (C. parapsilosis [6]; 24 hr)
1 µg/mL: MIC (C. tropicalis; C. tropicalis MMX 7247, 48 hr) | MIC (C. tropicalis; C. tropicalis MMX 7248, 48 hr) | MIC (C. glabrata; C. glabrata MMX 7086, 48 hr) | MIC (C. glabrata; C. glabrata MMX 7318, 48 hr) | MIC (C. parapsilosis [5]; C. parapsilosis MMX 2323 (ATCC 22019), QC, 48 hr) | MIC (C. parapsilosis [5]; C. parapsilosis MMX 7370, FLUR, 48 hr)
